Assay [1] deals with Phosphatidylinositol 4,5-bisphosphate 3-kinase catalytic subunit alpha isoform (Homo sapiens), P42336 [H1047L]. To be noted: Compound concentration 100.0 nM.
The species entered for assay [2] is Rattus norvegicus. Nature of the assay: Testosterone Eurofins-Panlabs radioligand binding assay. Also noted: ligand concentration 1.5 nM. To be noted: Compound concentration 10.0 uM.
The species entered for assay [3] is Homo sapiens. Put plainly: Inhibition of Nicotinic Acetylcholine at compound concentration of 10.0 uM in the Eurofins-Panlabs radioligand binding assay (Eurofins_assay_258590). The assay is classed as protein-complex assay. The settings on record: Compound concentration 10.0 uM.
For assay [4], the target named is Alpha-2A adrenergic receptor (Homo sapiens) (UniProt P08913). Put plainly: Adrenergic alpha2A Eurofins-Panlabs radioligand binding assay. The settings on record: Compound concentration 10.0 uM. Also on record: ligand concentration 1 nM, non-specific ligand with concentration 10 µM WB-4101, incubation time 60 min, incubation temperature 25 °C.
The target in assay [5] is T1, Alpha-2C adrenergic receptor (Homo sapiens) (UniProt P18825).
T1 sequence (whole entry): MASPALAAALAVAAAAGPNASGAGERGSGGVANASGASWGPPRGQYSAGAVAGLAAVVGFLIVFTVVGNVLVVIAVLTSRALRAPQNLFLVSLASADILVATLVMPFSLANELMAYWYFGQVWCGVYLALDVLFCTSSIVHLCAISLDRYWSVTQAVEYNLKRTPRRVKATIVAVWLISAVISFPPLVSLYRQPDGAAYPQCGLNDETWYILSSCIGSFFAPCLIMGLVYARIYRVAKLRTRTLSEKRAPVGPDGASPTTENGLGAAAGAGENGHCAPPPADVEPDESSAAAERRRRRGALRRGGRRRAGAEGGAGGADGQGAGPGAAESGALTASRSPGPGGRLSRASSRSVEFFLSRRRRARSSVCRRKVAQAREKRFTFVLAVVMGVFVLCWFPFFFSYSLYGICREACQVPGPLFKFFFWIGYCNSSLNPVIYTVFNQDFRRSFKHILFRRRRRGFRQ
Put plainly: Adrenergic alpha2C Eurofins-Panlabs radioligand binding assay. Also on record: ligand concentration 1 nM, non-specific ligand with concentration 10 µM WB-4101, incubation time 60 min, incubation temperature 25 °C. To be noted: Compound concentration 10.0 uM.

Assay [6] can be described thus: Inhibition of Atrial Natriuretic Factor (ANF) at 10 µM in the Eurofins-Panlabs radioligand binding assay (Eurofins_assay_211000). To be noted: Cavia porcellus; Compound concentration 10 uM; Assay protocol publication PMID: 2408776; Detection method Radioligand Binding; Incubation temperature 4 °C; Incubation time 60 min; Ligand Bmax 0.013 pM/ mg protein; Ligand Kd 0.14 nM; Ligand [125I] ANF (rat); Ligand concentration 0.016 nM; Ligand specific binding 78 %; Non-specific ligand with concentration 0.1 µM ANF (rat); Reference compound ANF (rat); Source of ….

A further assay deals with Caspase-9 (Homo sapiens) (UniProt P55211). Put plainly: Peptidase, CASP9 (Caspase 9) Eurofins-Panlabs enzyme assay. The settings on record: Compound concentration 10.0 uM. Also noted: substrate with concentration.
Assay [7] concerns the target Cathepsin G (Homo sapiens) (UniProt P08311). Put plainly: Inhibition of Peptidase, CTSG (Cathepsin G) at 10 µM in the Eurofins-Panlabs enzyme assay (Eurofins_assay_112510). Also noted: substrate with concentration. The settings on record: Compound concentration 10.0 uM.
For the next assay, the species on record is Bos taurus. Nature of the assay: Protein Serine/Threonine Kinase, PKA, Non-Selective Eurofins-Panlabs enzyme assay. Also on record: substrate with concentration 370 µg/mL Histone Type III-S, incubation time 15 min, incubation temperature 25 °C. The assay is classed as protein-complex assay. To be noted: Compound concentration 10.0 uM.
For assay [8], the species on record is Rattus norvegicus. Put plainly: Glutamate, NMDA, Polyamine Eurofins-Panlabs radioligand binding assay. The class given is protein-complex assay. To be noted: Compound concentration 10.0 uM. Also on record: ligand concentration 2 nM.
Assay [9] deals with Thyrotropin-releasing hormone receptor (Homo sapiens) (UniProt P34981). Nature of the assay: Thyrotropin Releasing Hormone (TRH) Eurofins-Panlabs radioligand binding assay. Also noted: ligand concentration 3 nM. To be noted: Rattus norvegicus; Compound concentration 10.0 uM.
The target of assay [10] is High affinity choline transporter 1 (Homo sapiens) (UniProt Q9GZV3). Put plainly: Transporter, Choline Eurofins-Panlabs radioligand binding assay. Also noted: ligand concentration 0.75 nM. The settings on record: Rattus norvegicus; Compound concentration 10.0 uM.
Assay [11] deals with Glutamate NMDA receptor; GRIN1/GRIN2A (Homo sapiens) (UniProt Q05586+Q12879). Nature of the assay: NMDA-NR1a/NR2a Eurofins-Panlabs radioligand binding assay. The assay is classed as protein-complex assay. To be noted: Compound concentration 10.0 uM.
Assay [12] is filed under the species Homo sapiens. Put plainly: Prostanoid, Thromboxane A2 (TP) Eurofins-Panlabs radioligand binding assay. Also noted: ligand concentration 5 nM, non-specific ligand with concentration 1 µM SQ-29548, incubation time 30 min, incubation temperature 25 °C. To be noted: Compound concentration 10.0 uM.
In assay [13] the target is Rod cGMP-specific 3',5'-cyclic phosphodiesterase subunit alpha (Homo sapiens, UniProt P16499). Nature of the assay: Biochemical assay (PDE6A).
For assay [14], the target named is Sodium-dependent noradrenaline transporter (Homo sapiens) (UniProt P23975). To be noted: Compound concentration 10.0 uM.
Assay [15] has as its target Adenosine receptor A2a (Homo sapiens) (UniProt P29274). The settings on record: Compound concentration 10.0 uM.
In assay [16] the target is Cannabinoid receptor 1 (Homo sapiens) (UniProt P21554). To be noted: Compound concentration 10.0 uM.
In assay [17] the target is D(2) dopamine receptor (Homo sapiens) (UniProt P14416). The settings on record: Compound concentration 10.0 uM.
Assay [18] has as its target Histamine H1 receptor (Homo sapiens) (UniProt P35367). To be noted: Compound concentration 10.0 uM.
Assay [19] concerns the target Muscarinic acetylcholine receptor M3 (Homo sapiens) (UniProt P20309). To be noted: Compound concentration 10.0 uM.
Assay [20] addresses Mu-type opioid receptor (Homo sapiens) (UniProt P35372). The settings on record: Compound concentration 10.0 uM.
In assay [21] the target is T2, 5-hydroxytryptamine receptor 1A (Homo sapiens) (UniProt P08908).
T2 sequence (whole entry): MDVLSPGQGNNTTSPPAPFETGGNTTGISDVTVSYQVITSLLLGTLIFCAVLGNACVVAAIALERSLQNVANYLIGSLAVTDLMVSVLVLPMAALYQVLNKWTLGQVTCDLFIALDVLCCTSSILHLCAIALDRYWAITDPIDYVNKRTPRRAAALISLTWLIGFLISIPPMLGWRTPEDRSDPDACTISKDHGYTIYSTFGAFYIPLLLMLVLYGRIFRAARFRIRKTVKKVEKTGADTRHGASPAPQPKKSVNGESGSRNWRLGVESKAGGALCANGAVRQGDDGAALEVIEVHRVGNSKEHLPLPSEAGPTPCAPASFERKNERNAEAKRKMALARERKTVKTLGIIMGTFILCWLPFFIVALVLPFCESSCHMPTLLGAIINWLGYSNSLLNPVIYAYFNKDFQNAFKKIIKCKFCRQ
The settings on record: Compound concentration 10.0 uM.

Assay [22] concerns the target T3, Muscarinic acetylcholine receptor M4 (Homo sapiens) (UniProt P08173).
T3 sequence (whole entry): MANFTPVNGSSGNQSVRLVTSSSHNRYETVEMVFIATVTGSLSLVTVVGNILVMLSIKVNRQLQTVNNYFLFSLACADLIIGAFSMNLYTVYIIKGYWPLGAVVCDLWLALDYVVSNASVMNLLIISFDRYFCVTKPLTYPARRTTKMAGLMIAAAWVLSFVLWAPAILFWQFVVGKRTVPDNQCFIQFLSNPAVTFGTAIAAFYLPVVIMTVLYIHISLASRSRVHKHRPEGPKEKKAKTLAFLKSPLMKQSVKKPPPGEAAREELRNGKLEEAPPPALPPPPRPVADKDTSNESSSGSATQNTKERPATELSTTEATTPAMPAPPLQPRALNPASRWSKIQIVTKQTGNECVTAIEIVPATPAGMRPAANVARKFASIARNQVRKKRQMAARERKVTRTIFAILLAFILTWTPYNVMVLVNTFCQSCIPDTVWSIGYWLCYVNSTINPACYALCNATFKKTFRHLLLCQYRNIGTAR
The settings on record: Compound concentration 10.0 uM.

Assay [23] concerns the target Cannabinoid receptor 2 (Homo sapiens) (UniProt P34972). The settings on record: Compound concentration 10.0 uM.

Mu-type opioid receptor (Homo sapiens), sequence (P35372 whole entry): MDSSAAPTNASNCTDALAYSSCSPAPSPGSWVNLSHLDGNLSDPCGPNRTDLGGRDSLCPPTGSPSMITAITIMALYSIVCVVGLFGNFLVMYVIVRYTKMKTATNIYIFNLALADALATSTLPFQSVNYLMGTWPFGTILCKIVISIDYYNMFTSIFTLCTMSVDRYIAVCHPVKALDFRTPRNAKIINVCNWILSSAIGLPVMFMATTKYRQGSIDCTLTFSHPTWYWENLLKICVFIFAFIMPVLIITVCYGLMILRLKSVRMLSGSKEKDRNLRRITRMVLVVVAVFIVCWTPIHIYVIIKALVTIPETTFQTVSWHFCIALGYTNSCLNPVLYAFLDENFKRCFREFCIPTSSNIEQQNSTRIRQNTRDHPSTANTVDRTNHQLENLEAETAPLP
D(2) dopamine receptor (Homo sapiens), sequence (P14416 whole entry): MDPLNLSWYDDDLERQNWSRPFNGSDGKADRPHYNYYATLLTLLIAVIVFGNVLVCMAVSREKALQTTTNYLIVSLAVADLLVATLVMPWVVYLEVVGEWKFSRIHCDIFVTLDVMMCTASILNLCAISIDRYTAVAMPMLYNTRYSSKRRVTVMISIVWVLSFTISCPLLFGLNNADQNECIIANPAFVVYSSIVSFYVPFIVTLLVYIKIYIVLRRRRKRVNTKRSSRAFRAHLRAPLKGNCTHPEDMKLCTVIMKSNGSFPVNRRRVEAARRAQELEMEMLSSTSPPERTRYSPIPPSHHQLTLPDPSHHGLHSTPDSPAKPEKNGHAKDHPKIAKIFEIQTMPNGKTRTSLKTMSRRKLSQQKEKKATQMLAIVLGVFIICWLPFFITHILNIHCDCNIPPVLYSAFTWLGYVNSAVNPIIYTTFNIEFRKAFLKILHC
Phosphatidylinositol 4,5-bisphosphate 3-kinase catalytic subunit alpha isoform (Homo sapiens), P42336 [H1047L], sequence (P42336 whole entry H1047L, canonical isoform): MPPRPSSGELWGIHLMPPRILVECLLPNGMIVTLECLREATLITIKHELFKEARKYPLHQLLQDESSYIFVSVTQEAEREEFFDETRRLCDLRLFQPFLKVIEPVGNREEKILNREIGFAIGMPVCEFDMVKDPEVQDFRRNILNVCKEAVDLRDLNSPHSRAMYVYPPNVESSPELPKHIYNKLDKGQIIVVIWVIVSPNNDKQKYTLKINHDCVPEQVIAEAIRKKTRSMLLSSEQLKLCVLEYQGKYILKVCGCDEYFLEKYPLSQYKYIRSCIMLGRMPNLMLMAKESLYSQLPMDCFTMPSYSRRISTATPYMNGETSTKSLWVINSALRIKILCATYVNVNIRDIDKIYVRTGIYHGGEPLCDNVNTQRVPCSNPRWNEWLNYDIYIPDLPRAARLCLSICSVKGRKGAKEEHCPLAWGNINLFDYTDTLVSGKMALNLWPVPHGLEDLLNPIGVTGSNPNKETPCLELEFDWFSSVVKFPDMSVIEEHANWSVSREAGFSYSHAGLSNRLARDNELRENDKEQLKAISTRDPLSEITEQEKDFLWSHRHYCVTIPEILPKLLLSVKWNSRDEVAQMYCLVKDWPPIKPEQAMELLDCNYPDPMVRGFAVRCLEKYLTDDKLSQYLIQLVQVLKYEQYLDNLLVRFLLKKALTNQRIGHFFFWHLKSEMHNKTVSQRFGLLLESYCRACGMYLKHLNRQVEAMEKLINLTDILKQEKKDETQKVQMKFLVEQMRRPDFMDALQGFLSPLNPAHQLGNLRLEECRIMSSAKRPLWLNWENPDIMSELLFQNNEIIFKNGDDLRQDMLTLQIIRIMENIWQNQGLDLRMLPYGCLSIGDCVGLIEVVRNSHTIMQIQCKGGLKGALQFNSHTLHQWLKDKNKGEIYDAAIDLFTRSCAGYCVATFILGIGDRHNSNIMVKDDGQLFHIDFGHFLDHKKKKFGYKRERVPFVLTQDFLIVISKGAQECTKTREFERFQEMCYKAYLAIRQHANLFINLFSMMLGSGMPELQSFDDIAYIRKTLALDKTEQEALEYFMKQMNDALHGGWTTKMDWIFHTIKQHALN
Rod cGMP-specific 3',5'-cyclic phosphodiesterase subunit alpha, sequence (P16499 whole entry): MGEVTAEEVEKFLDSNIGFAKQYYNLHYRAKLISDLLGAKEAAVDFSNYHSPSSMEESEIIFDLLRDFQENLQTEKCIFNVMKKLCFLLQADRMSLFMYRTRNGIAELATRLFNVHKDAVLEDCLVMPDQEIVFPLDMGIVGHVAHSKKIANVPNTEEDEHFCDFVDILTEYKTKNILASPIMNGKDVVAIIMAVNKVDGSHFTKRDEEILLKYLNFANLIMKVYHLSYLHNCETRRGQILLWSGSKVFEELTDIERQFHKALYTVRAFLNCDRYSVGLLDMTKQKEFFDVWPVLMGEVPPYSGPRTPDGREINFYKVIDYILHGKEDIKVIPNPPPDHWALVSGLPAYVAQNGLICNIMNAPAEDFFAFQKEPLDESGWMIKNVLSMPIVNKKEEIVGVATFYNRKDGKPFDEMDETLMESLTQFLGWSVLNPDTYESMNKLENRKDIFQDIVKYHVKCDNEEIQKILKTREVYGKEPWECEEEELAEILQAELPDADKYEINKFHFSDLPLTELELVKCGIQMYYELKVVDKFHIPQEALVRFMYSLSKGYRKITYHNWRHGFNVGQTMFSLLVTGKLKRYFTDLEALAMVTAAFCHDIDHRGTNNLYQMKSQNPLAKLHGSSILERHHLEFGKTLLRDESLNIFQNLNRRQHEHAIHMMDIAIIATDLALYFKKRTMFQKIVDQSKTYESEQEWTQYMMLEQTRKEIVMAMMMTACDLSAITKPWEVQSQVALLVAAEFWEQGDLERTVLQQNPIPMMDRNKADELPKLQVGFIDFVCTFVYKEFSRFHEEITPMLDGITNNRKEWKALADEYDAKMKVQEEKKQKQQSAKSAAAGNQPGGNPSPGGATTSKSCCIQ
High affinity choline transporter 1 (Homo sapiens), sequence (Q9GZV3 whole entry): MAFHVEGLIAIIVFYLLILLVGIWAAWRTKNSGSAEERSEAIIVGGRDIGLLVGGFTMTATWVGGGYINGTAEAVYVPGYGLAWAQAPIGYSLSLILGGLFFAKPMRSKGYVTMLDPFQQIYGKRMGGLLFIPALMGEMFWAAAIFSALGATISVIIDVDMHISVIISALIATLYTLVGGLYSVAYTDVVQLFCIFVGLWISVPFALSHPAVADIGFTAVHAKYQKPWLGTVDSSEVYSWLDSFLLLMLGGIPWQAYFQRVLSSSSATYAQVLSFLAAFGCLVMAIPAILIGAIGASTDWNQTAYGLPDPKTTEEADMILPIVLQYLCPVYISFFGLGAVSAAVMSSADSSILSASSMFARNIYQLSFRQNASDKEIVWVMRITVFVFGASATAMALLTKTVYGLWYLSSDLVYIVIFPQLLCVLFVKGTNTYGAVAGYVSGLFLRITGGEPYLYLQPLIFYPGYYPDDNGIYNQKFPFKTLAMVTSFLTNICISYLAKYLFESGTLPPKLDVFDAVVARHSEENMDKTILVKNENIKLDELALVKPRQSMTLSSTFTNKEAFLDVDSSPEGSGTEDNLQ
Alpha-2A adrenergic receptor (Homo sapiens), sequence (P08913 whole entry): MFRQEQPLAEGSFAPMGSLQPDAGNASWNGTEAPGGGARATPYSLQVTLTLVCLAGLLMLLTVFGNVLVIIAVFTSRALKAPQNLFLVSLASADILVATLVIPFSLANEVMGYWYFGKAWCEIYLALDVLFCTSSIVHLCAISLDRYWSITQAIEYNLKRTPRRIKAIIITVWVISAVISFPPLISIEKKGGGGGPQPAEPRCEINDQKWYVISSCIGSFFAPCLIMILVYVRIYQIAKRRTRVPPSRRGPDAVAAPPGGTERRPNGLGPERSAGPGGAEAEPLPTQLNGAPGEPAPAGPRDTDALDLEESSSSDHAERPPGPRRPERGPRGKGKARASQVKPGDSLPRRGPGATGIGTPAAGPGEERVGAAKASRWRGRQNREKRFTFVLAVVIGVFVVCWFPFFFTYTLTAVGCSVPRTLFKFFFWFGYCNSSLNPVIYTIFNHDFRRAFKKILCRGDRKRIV
Cannabinoid receptor 1 (Homo sapiens), sequence (P21554 whole entry): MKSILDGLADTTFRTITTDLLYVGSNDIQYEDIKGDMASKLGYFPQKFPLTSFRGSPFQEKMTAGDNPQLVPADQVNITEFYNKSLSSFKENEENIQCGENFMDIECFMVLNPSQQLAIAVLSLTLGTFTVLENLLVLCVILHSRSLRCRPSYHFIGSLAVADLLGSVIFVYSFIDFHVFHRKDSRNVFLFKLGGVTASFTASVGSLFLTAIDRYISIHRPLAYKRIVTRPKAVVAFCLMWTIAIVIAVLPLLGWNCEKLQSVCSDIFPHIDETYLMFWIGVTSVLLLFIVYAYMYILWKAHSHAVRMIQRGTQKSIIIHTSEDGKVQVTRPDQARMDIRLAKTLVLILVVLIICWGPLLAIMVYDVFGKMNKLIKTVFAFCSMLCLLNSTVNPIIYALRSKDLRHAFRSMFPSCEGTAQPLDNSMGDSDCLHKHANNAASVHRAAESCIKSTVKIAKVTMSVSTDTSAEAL
Muscarinic acetylcholine receptor M3 (Homo sapiens), sequence (P20309 whole entry, looked up): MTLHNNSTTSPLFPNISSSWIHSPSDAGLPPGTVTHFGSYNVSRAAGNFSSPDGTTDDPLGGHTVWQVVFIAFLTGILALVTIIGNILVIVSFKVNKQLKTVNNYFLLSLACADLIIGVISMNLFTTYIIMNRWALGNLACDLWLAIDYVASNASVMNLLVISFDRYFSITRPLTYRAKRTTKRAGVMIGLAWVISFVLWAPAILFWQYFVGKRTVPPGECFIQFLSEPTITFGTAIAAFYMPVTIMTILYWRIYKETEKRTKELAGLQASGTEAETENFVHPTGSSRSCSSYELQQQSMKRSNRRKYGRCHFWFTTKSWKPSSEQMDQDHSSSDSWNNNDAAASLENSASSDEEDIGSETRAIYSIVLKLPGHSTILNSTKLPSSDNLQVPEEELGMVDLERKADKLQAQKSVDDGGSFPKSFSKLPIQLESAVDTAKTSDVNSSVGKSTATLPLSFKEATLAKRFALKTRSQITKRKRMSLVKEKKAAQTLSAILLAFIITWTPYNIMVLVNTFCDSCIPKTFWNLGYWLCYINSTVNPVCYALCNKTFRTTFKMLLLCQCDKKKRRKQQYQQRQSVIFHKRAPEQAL

As to `CC(C)CC(=O)N1CCc2nc(-c3ccc(Br)cc3)nc(N(C)Cc3ccccc3)c2C1` [THPP-1-NC], the residual activity – broadly, the share of the control activity or signal that is left under treatment – in assay [1] is 100%.
With `COCCOc1nc(-c2ccc(Cl)nc2)nc2c1CN(C(=O)c1ncn3ccccc13)CC2` [THPP-1], the inhibition (commonly the relative decrease from the control value, in per cent) is 7% in the assay filed under Rattus norvegicus [2]; -7% in the assay listed under Homo sapiens [3]; -3% in [4]; 3% in assay [5]; -5% at Caspase-9 (Homo sapiens); 17% in assay [7]. Further, the inhibition in the assay filed under Bos taurus is -7%; in the assay listed under Rattus norvegicus [8], 11%; in [9], 7%; in [10], 9%; in assay [11], -7%; in the assay listed under Homo sapiens [12] it was 8%. Also, the inhibition is -6.81% in [14]; 17% in assay [15]; 21% in [16]; 3% in [17]; 0% in [18]; -6% in assay [19]. Besides, the inhibition in assay [20] was 2%; in assay [21], 8%; in assay [22], 5%; in assay [23], 28%. Moreover, the inhibition at 10 µM in [6] is listed as 0% (not active). In assay [13], the Ki (usually a measure of affinity in units of concentration, obtained from inhibition or displacement) turned out to be 44 nM.

(Values after ChEMBL document CHEMBL4507293 (2021).)
